Entries after “also recorded” stand apart in the source; their conditions may differ.
How the values were obtained:
[1] = test system: MK-801-induced deficits in inhibitory avoidance; test: 24-hour inhibitory avoidance in mouse (MK-801-induced deficit); format: in vivo; conditions: CD1 mice; i.p.; high dose of 10 mg/kg; compared to Veh-MK-801 (0.1 mg/kg)
Description: (viii) Inhibitory Avoidance in Mouse
Specifically in the hippocampus CA1 area, N-methyl-D-aspartic acid (NMDA) receptors are known to regulate synaptic plasticity, long term-potentiation (LTP), and learning and memory processes, including short- and long-term memories. […] The inhibitory avoidance task involves the uses of a two-compartment step through apparatus (Ugo Basile, Collegeville, Pa.) that measures the animal's ability to remember a brief noxious stimulus (foot shock), and is considered a measure of trial learning, and memory. (Bitner, R. S., et al. J. Neurosci. 2007, 27(39), 10578-10587). The purpose of this experiment was to test the ability of a 5HTc agonist to attenuate MK-801-induced deficits in the 24-hour inhibitory avoidance test. Effects against MK-801-induced cognitive impairment may indicate a potential efficacy in treating cognitive deficits of schizophrenia.
Following a 2 hour habituation period, CD1 mice first received i.p. treatment with the test compound at 0, 1, 3, 10 mg/kg. 20 minutes later mice then received either MK-801 at 0.1 mg/kg (dissolved in 0.3% tartaric acid) or vehicle (Veh, water). […] The latency to enter the adjoining dark chamber was recorded, and an inescapable foot shock (0.3 mA, 1 second duration) was presented to the mouse. […] The latency to enter the dark chamber was recorded and was the dependent variable measured for assessing memory retention.

[2] = target: T1, 5HT2C receptors (Homo sapiens, UniProt P28335); test: Human 5-HT2C functional high throughput screening assay in CHO-K1 cells (calcium flux); format: cell-based; set-up: expressed in transfected cells; host or cells: CHO-K1 cells
T1 sequence (P28335 33-458): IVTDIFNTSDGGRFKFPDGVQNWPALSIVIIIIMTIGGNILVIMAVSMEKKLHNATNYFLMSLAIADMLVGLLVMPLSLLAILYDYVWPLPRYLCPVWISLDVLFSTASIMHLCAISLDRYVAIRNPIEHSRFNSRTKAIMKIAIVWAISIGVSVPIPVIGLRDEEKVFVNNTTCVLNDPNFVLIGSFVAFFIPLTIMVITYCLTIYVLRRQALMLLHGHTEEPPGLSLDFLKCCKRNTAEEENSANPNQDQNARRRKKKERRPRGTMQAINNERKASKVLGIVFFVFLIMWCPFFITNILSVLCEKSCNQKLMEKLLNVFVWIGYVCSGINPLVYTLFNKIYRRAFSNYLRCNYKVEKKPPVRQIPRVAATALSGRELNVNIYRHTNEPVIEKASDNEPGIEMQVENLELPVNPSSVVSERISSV
Method in brief: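 Agonism was measured as FLIPR fluorescence increase (480/530 nm, 25° C) with Ca4 dye and 2.5 mM probenecid, in serum-starved CHO-K1 lines overexpressing human 5-HT2C or 5-HT2B. Six-point 1:10 dilutions from 10 μM (0.2% DMSO final) were fitted by 4-parameter logistics. Responses were normalised to serotonin to give EC50 and % Emax.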

[3] = test system: SHR pups; test: 5-trial inhibitory avoidance/impulsivity model in pups of spontaneously hypertensive rat; format: in vivo; conditions: sc 1, 3 and 10 mg/kg, acute, compared to vehicle
Description: (ix) 5-Trial Inhibitory Avoidance/Impulsivity Model in the Pups of Spontaneously Hypertensive Rat
However, the adult rats have spontaneous hypertension which may confound behavioral assessment. The juvenile SHRs were used in the current study since these pups show similar behavioral deficits while having not developed hypertension. The aim was to investigate the efficacy of 5-HT2c agonists in SHR pups in an inhibitory avoidance model, as indication of enhancement of inhibitory control/or anti-impulsivity.
SHR pups at postnatal day 21-28 were sc dosed with either vehicle or Example 115 (1, 3, and 10 mg/kg; dissolved in tartaric acid/PH4-6) 30 minutes prior to the test. Upon testing initiation, pups were placed into the light side of a computer controlling 2-chambered compartment. The latency to enter the adjoining dark chamber was recorded, and an inescapable footshock (0.1 mA, 1 second duration) was presented to the pup. The pup was removed, placed back into the home cage for approximately 1 minute, and the process repeated for a total of 5 trials. The dependent variable used for data analysis was the total transfer latency of trial 2 to trial 5.

EC50 ([2]; 5-HT2C agonist activity, CHO-K1 cells, calcium flux, read-out: EC50): 2 nM
Emax ([2]; CHO-K1, 5-HT2C, maximum functional response as percentage relative to the effect of serotonin, read-out: Emax): > 120%
SMILES: CN1C[C@@H]2CNC(=O)c3cc(-c4ccc(F)cc4)ccc3[C@H]2C1 [Example 115, (3aS,10bS)-8-(4-Fluorophenyl)-2-methyl-1,2,3,3a,4,5-hexahydrobenzo[e]pyrrolo[3,4-c]azepin-6(10bH)-one]
transfer latency, 24-hour inhibitory avoidance [1]: significantly increased transfer latencies; also recorded: dose-dependent improvement in mouse 24-hour inhibitory avoidance scores
total transfer latency of trial 2 to trial 5 [3]: dose-dependent increase in transfer latencies; also recorded: dose-dependent improvement in 5-trial inhibitory avoidance scores

— patent US8846951B2 (AbbVie Inc., priority 2009, dated 2014)
